# Measurements taken from ChEMBL document CHEMBL5528040, “Design and Synthesis of Novel 3-Nitro-1H-1,2,4-triazole-1,2,3-triazole-1,4-disubstituted Analogs as Promising Antitrypanosomatid Agents: Evaluation of In Vitro Activity against Chagas Disease and Leishmaniasis” (J Med Chem, 2024).
# Experiments:
# Trypanosoma cruzi [1] = assay: (§1) Antitrypanosomal activity against Trypanosoma cruzi Tulahuen amastigotes transfected with Escherichia coli beta-galactosidase LacZ gene infected in monkey LLC-MK2 cells assessed as inhibition of amastigotes growth incubated for 72 hrs by absorbance based microplate reader analysis; format: functional, organism-based; conditions: LLC-MK2, 72 h
# [2] = Cytotoxicity against monkey LLC-MK2 cells incubated for 72 hrs by MTT assay; format: toxicity, cell-based, Macaca mulatta; conditions: rhesus monkey
# Trypanosoma cruzi [3] = assay: as §1, with “Potency index, ratio of Benznidazole IC50 to test compound IC50 for antitrypanosomal” for “Antitrypanosomal”; format: functional
# [4] = Substrate activity at Trypanosoma cruzi type I nitro reductase assessed as reduction in NADH incubated for 120 sec by spectrophotometric analysis
# [5] = Mutagenicity in Salmonella typhimurium TA98 assessed as number of revertant colonies at 50 ug per plate incubated for 90 mins by AMES test (reference value: 22.67 +/- 0.58); format: toxicity, Salmonella enterica subsp. enterica serovar Typhimurium; conditions: in vivo, 1.5 h, dose 50 µg
# [6] = Mutagenicity in Salmonella typhimurium TA98 assessed as number of revertant colonies at 150 ug per plate incubated for 90 mins by AMES test (reference value: 22.67 +/- 0.58); format: toxicity, Salmonella enterica subsp. enterica serovar Typhimurium; conditions: in vivo, 1.5 h, dose 150 µg
# [7] = Mutagenicity in Salmonella typhimurium TA98 assessed as number of revertant colonies at 150 ug per plate incubated for 90 mins in presence of S9 fraction by AMES test (reference value: 21.00 +/- 1.00); format: toxicity, subcellular, Salmonella enterica subsp. enterica serovar Typhimurium; conditions: s9, 1.5 h, dose 150 µg
# [8] = Mutagenicity in Salmonella typhimurium TA98 assessed as number of revertant colonies at 500 ug per plate incubated for 90 mins in presence of S9 fraction by AMES test (reference value: 21.00 +/- 1.00); format: toxicity, subcellular, Salmonella enterica subsp. enterica serovar Typhimurium; conditions: s9, 1.5 h, dose 500 µg
# [9] = Mutagenicity in Salmonella typhimurium TA98 assessed as number of revertant colonies at 5000 ug per plate incubated for 90 mins in presence of S9 fraction by AMES test (reference value: 21.00 +/- 1.00); format: toxicity, subcellular, Salmonella enterica subsp. enterica serovar Typhimurium; conditions: s9, 1.5 h, dose 5000 µg
# [10] = Mutagenicity in Salmonella typhimurium TA100 assessed as number of revertant colonies at 50 ug per plate incubated for 90 mins by AMES test (reference value: 88.00 +/- 2.65); format: toxicity, Salmonella enterica subsp. enterica serovar Typhimurium; conditions: in vivo, 1.5 h, dose 50 µg
# [11] = Mutagenicity in Salmonella typhimurium TA100 assessed as number of revertant colonies at 500 ug per plate incubated for 90 mins by AMES test (reference value: 88.00 +/- 2.65); format: toxicity, Salmonella enterica subsp. enterica serovar Typhimurium; conditions: in vivo, 1.5 h, dose 500 µg
# [12] = Mutagenicity in Salmonella typhimurium TA100 assessed as number of revertant colonies at 1500 ug per plate incubated for 90 mins by AMES test (reference value: 88.00 +/- 2.65); format: toxicity, Salmonella enterica subsp. enterica serovar Typhimurium; conditions: in vivo, 1.5 h, dose 1500 µg
# [13] = Mutagenicity in Salmonella typhimurium TA100 assessed as number of revertant colonies at 5000 ug per plate incubated for 90 mins by AMES test (reference value: 88.00 +/- 2.65); format: toxicity, Salmonella enterica subsp. enterica serovar Typhimurium; conditions: in vivo, 1.5 h, dose 5000 µg
# [14] = Mutagenicity in Salmonella typhimurium TA100 assessed as number of revertant colonies at 50 ug per plate incubated for 90 mins in presence of S9 fraction by AMES test (reference value: 122.67 +/- 5.03); format: toxicity, subcellular, Salmonella enterica subsp. enterica serovar Typhimurium; conditions: s9, 1.5 h, dose 50 µg
# [15] = Mutagenicity in Salmonella typhimurium TA100 assessed as number of revertant colonies at 1500 ug per plate incubated for 90 mins in presence of S9 fraction by AMES test (reference value: 122.67 +/- 5.03); format: toxicity, subcellular, Salmonella enterica subsp. enterica serovar Typhimurium; conditions: s9, 1.5 h, dose 1500 µg
# [16] = Mutagenicity in Salmonella typhimurium TA102 assessed as number of revertant colonies at 150 ug per plate incubated for 90 mins by AMES test (reference value: 110.67 +/- 20.15); format: toxicity, Salmonella enterica subsp. enterica serovar Typhimurium; conditions: in vivo, 1.5 h, dose 150 µg
# [17] = Mutagenicity in Salmonella typhimurium TA102 assessed as number of revertant colonies at 500 ug per plate incubated for 90 mins by AMES test (reference value: 110.67 +/- 20.15); format: toxicity, Salmonella enterica subsp. enterica serovar Typhimurium; conditions: in vivo, 1.5 h, dose 500 µg
# [18] = Mutagenicity in Salmonella typhimurium TA102 assessed as number of revertant colonies at 1500 ug per plate incubated for 90 mins by AMES test (reference value: 110.67 +/- 20.15); format: toxicity, Salmonella enterica subsp. enterica serovar Typhimurium; conditions: in vivo, 1.5 h, dose 1500 µg
# [19] = Mutagenicity in Salmonella typhimurium TA102 assessed as number of revertant colonies at 5000 ug per plate incubated for 90 mins in presence of S9 fraction by AMES test (reference value: 130.00 +/- 6.93); format: toxicity, subcellular, Salmonella enterica subsp. enterica serovar Typhimurium; conditions: s9, 1.5 h, dose 5000 µg
# [20] = Mutagenicity in Salmonella typhimurium TA98 assessed as mutagenic index ratio at 5000 ug per plate incubated for 90 mins by AMES test; format: toxicity, Salmonella enterica subsp. enterica serovar Typhimurium; conditions: in vivo, 1.5 h, dose 5000 µg
# [21] = Mutagenicity in Salmonella typhimurium TA98 assessed as mutagenic index ratio at 150 ug per plate incubated for 90 mins in presence of S9 fraction by AMES test; format: toxicity, subcellular, Salmonella enterica subsp. enterica serovar Typhimurium; conditions: s9, 1.5 h, dose 150 µg
# [22] = Mutagenicity in Salmonella typhimurium TA100 assessed as mutagenic index ratio at 150 ug per plate incubated for 90 mins by AMES test; format: toxicity, Salmonella enterica subsp. enterica serovar Typhimurium; conditions: in vivo, 1.5 h, dose 150 µg
# [23] = Mutagenicity in Salmonella typhimurium TA100 assessed as mutagenic index ratio at 1500 ug per plate incubated for 90 mins by AMES test; format: toxicity, Salmonella enterica subsp. enterica serovar Typhimurium; conditions: in vivo, 1.5 h, dose 1500 µg
# [24] = Mutagenicity in Salmonella typhimurium TA100 assessed as mutagenic index ratio at 50 ug per plate incubated for 90 mins in presence of S9 fraction by AMES test; format: toxicity, subcellular, Salmonella enterica subsp. enterica serovar Typhimurium; conditions: s9, 1.5 h, dose 50 µg
# [25] = Mutagenicity in Salmonella typhimurium TA100 assessed as mutagenic index ratio at 500 ug per plate incubated for 90 mins in presence of S9 fraction by AMES test; format: toxicity, subcellular, Salmonella enterica subsp. enterica serovar Typhimurium; conditions: s9, 1.5 h, dose 500 µg
# [26] = Mutagenicity in Salmonella typhimurium TA100 assessed as mutagenic index ratio at 1500 ug per plate incubated for 90 mins in presence of S9 fraction by AMES test; format: toxicity, subcellular, Salmonella enterica subsp. enterica serovar Typhimurium; conditions: s9, 1.5 h, dose 1500 µg
# [27] = Mutagenicity in Salmonella typhimurium TA100 assessed as mutagenic index ratio at 5000 ug per plate incubated for 90 mins in presence of S9 fraction by AMES test; format: toxicity, subcellular, Salmonella enterica subsp. enterica serovar Typhimurium; conditions: s9, 1.5 h, dose 5000 µg
# [28] = Mutagenicity in Salmonella typhimurium TA102 assessed as mutagenic index ratio at 50 ug per plate incubated for 90 mins by AMES test; format: toxicity, Salmonella enterica subsp. enterica serovar Typhimurium; conditions: in vivo, 1.5 h, dose 50 µg
# [29] = Mutagenicity in Salmonella typhimurium TA102 assessed as mutagenic index ratio at 500 ug per plate incubated for 90 mins by AMES test; format: toxicity, Salmonella enterica subsp. enterica serovar Typhimurium; conditions: in vivo, 1.5 h, dose 500 µg
# [30] = Mutagenicity in Salmonella typhimurium TA102 assessed as mutagenic index ratio at 5000 ug per plate incubated for 90 mins by AMES test; format: toxicity, Salmonella enterica subsp. enterica serovar Typhimurium; conditions: in vivo, 1.5 h, dose 5000 µg
# [31] = Mutagenicity in Salmonella typhimurium TA102 assessed as mutagenic index ratio at 50 ug per plate incubated for 90 mins in presence of S9 fraction by AMES test; format: toxicity, subcellular, Salmonella enterica subsp. enterica serovar Typhimurium; conditions: s9, 1.5 h, dose 50 µg
# [32] = Mutagenicity in Salmonella typhimurium TA102 assessed as mutagenic index ratio at 500 ug per plate incubated for 90 mins in presence of S9 fraction by AMES test; format: toxicity, subcellular, Salmonella enterica subsp. enterica serovar Typhimurium; conditions: s9, 1.5 h, dose 500 µg
# [33] = Mutagenicity in Salmonella typhimurium TA102 assessed as mutagenic index ratio at 1500 ug per plate incubated for 90 mins in presence of S9 fraction by AMES test; format: toxicity, subcellular, Salmonella enterica subsp. enterica serovar Typhimurium; conditions: s9, 1.5 h, dose 1500 µg
smiles,measurement,setting,value
O=[N+]([O-])c1ncn(Cc2cn(-c3ccc(OC(F)(F)F)cc3)nn2)n1,IC50,Trypanosoma cruzi [1],90 nM
same,CC50 at 72 h,[2],> 50000 nM
same,Ratio IC50,Trypanosoma cruzi [3],68
same,pIC50,[4],7.04
same,Activity,[5],18.33
same,Activity,[6],24.67
same,Activity,[7],23.33
same,Activity,[8],23.33
same,Activity,[9],15.33
same,Activity,[10],104.33
same,Activity,[11],83
same,Activity,[12],81
same,Activity,[13],80.67
same,Activity,[14],121.33
same,Activity,[15],98.33
same,Activity,[16],159.33
same,Activity,[17],159.67
same,Activity,[18],141
same,Activity,[19],131
same,Ratio,[20],1.1
same,Ratio,[21],1.1
same,Ratio,[22],1
same,Ratio,[23],0.9
same,Ratio,[24],0.9
same,Ratio,[25],1
same,Ratio,[26],0.8
same,Ratio,[27],0.3
same,Ratio,[28],1.9
same,Ratio,[29],1.4
same,Ratio,[30],1.2
same,Ratio,[31],0.2
same,Ratio,[32],1.4
same,Ratio,[33],1.3
